# US5451411A, “Methods and compositions for the oral delivery of therapeutic agents” (University of Washington, priority 1993, dated 1995)
# Key:
# [1] = test system: mouse anti-TGF-β1 monoclonal antibody, 1D11; test: ELISA measured binding activity (immunoreactivity) of TGF-β1
# Method: The ability of released TGF-β1 from both untreated and acid treated beads (as described above) to be recognized (bound) by a monoclonal antibody was assayed by ELISA as follows. An enzyme linked immunosorbent assay (ELISA) was used to quantitate the amount of immunoreactive TGF-β1 released from the untreated (PBS) and acid treated (HCl) alginate beads. The ELISA was based on the ability of a mouse anti-TGF-β1 monoclonal antibody, 1D11 (Bristol-Myers Squibb, Seattle, WA), to bind to the TGF-β1 molecule. When the 1D11 antibody was coated on 96-well immunoassay plates it captured TGF-β1 from the applied sample and standard solutions. Captured TGF-β1 was then bound by biotinylated 1D11 antibody which in turn was bound by a horseradish peroxidase/avidin D conjugate (Vector Labs cat #A-2004). A color reaction occurred by adding a chromophore/substrate solution of 3,3',5,5'-tetramethylbenzidine in CPB containing hydrogen peroxide. The reaction was stopped with the addition of 1 N sulfuric acid and the A450 was determined by a plate reader. Concentrations of the unknown samples were quantified relative to a TGF-β1 standard curve run on the same plate.
# The immunoreactivity of TGF-β1 in solution in the presence of anionic amino acids, polyanions and polycations was studied using the ELISA procedure described in Example 2. To 1 mg/mL solutions of TGF-β1 in 5 mM HCl was added from 0 to 0.14%(w/v) of glutamic acid, aspartic acid, poly-L-aspartic acid (PLAA, Mw=13 kDa), sodium carboxymethyl cellulose (Na CMC, high viscosity), or polyacrylic acid (PAA, 2, 90 or 750 kDa). The reactivity of the TGF-β1 was then determined by the ELISA procedure, as described in Example 2.
# Next, the ability of the additives to […] was investigated. Alginate solutions were prepared in accordance with the procedure of Example 1, incorporating 50 μg of TGF-β1, 0-0.15% (w/v) of sodium alginate and 0.1-1.0 mg (up to 0.125% w/v) of PAA (750 kDa), PLAA (13 kDa), NaCMC high viscosity or glutamic acid. The immunoreactivity of TGF-β1 was determined by ELISA as described in Example 2.
# Alginate beads were prepared according to the procedure of Example 1 incorporating 50 μg TGF-β1 and 0.1-1.0 mg of additives. […] In addition, Poly-L-Lysine (PLL;123 kDa) was incorporated as a potential polycationic competitor. The additives were incorporated at an alginate:additive w/w ratio of from 75:10 to 75:1 as indicated below in Table 3.
# To further assess the effect of amount of PAA incorporation on immunoreactivity of released TGF-β1, alginate beads were prepared by incubating TGF-β1 and PAA (90 kDa) for either 5 or 60 minutes (see FIG. 7) in w/w ratios of 75:1, 75:6 and 75:10, followed by dilution, addition of alginate, and bead formation in 1% CaCl2. The beads were acid treated in 0.1 N HCl at 37° C. for 30 minutes and then incubated at 37° C. in PBS, pH 7.4.
# [2] = test system: proliferating cell nuclear antigen (PCNA); test: Cell proliferation in intestinal crypts (PCNA immunohistochemistry, proliferating index); format: in vivo, Sprague-Dawley rats; settings: TGF-β1 I.P. or P.O. in PBS
# Method: Adult male Sprague-Dawley rats (250±30 g) were caged individually and handled according to the guidelines of American Association for the Accreditation of Laboratory Animal Care (AAALAC). For peroral administration of TGF-β1, the rats were anesthetized with intramuscularly injected ketamine-HCl (40 mg/kg) (Vetalar®, Aveco Inc., Fort Dodge, Iowa) and a catheter was inserted into the stomach perorally to exclude the failure of the formulation to reach stomach and intestine. Intraperitoneal injections were performed into the lower right quadrant of the abdomen. […]
# Cell proliferation was quantified using immunohistochemical techniques for detecting proliferating cell nuclear antigen (PCNA), an endogenous marker of proliferating cells. […] The proliferating index (PI) was calculated as the number of epithelial cells in G1, S, G2 or M phase of the cell cycle per length (ram) of crypts counted. Four 0.25 mm areas (1 mm total) were scored for cell proliferation.
substance,measurement,setting,value
"TGF-β1: TGF-β1 (1 mg/mL in 5 mM HCl) obtained from Bristol-Myers Squibb (Seattle, WA)",Effect of hydrolysis time on ELISA measured binding activity of TGF-β1,"[1]; 0.1 N HCl, 37° C., 0.25-24 hr",no significant differences
same,TGF-β1 released and immunoreactive (ELISA),"[1]; acid treated beads 75:10 w/w PAA 90 kDa, PBS pH 7.4",over 80%
same,"% Binding Activity of released TGF-β1, HCl","[1]; alginate beads acid treated in 0.1 N HCl, no additive",14%
same,"% Binding Activity of released TGF-β1, PBS","[1]; alginate beads not acid treated (PBS), no additive",0%
same,"ELISA binding activity of TGF-β1 released from beads alone, in words",[1]; beads without PAA,no binding activity
same,"Immunoreactivity of TGF-β1, in words","[1]; released from calcium-alginate beads, in presence of alginate alone, or in presence of PAA (750 kDa)",little immunoreactivity
same,"Immunoreactivity of TGF-β1 with alginate, in words","[1]; solution, 0.015% alginate, no additive",no immunoreactivity
same,"% Active TGF-β1, 0% alginate","[1]; solution, % Alginate (w/v) 0",100%
same,"% Active TGF-β1, 0.0015% alginate","[1]; solution, % Alginate (w/v) 0.0015",65%
same,"% Active TGF-β1, 0.015% alginate","[1]; solution, % Alginate (w/v) 0.015",0%
same,"% Active TGF-β1, 0.15% alginate","[1]; solution, % Alginate (w/v) 0.15",0%
same,PCNA staining,[2],moderate staining
